Key:
late watergrass = test: Test Example 1: herbicidal activity, application before weed generation under submerged conditions (Table 16, symbol A); assay type: in vivo, late watergrass (Echinochloa oryzicola); conditions: 320 g/ha applied herbicide
Method in brief: (§1)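 Alluvial soil was flooded to 4 cm depth, weed seeds were sown mixed and 2.5-leaf rice seedlings were transplanted. On sowing day, the compound's emulsion, diluted in water to a set dose, was applied to the water surface. Plants grew at 25–30 °C and were scored 0–5 after three weeks.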

Japanese bulrush = test: Test Example 1: herbicidal activity, application before weed generation under submerged conditions (Table 16, symbol B); assay type: in vivo, Japanese bulrush (Schoenoplectus juncoides); conditions: 320 g/ha applied herbicide
Method in brief: as §1

oval-leafed pondweed = test: Test Example 1: herbicidal activity, application before weed generation under submerged conditions (Table 16, symbol C); assay type: in vivo, oval-leafed pondweed (Monochoria vaginalis); conditions: 320 g/ha applied herbicide
Method in brief: as §1

barnyard grass [1] = test: Test Example 3: herbicidal effect by foliage application, Wagner pot (Table 18, symbol H); assay type: in vivo, barnyard grass (Echinochloa crus-galli); conditions: 320 g/ha
Method in brief: (§2)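 Plants were sown in alluvial soil held under 0.1–0.5 cm standing water and grown 14 days in a greenhouse at 25–30 °C. An emulsifiable formulation, water-diluted to the set dose, was then sprayed onto the foliage, and effects were scored three weeks later using previously defined criteria.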

Chinese sprangletop = test: Test Example 3: herbicidal effect by foliage application, Wagner pot (Table 18, symbol D); assay type: in vivo, chinese sprangletop (Leptochloa chinensis); conditions: 320 g/ha
Method in brief: as §2

rice flat sedge = test: Test Example 3: herbicidal effect by foliage application, Wagner pot (Table 18, symbol E); assay type: in vivo, rice flat sedge (Cyperus iria); conditions: 320 g/ha
Method in brief: as §2

southern crabgrass [2] = test: Test Example 4: herbicidal effect by soil treatment (Table 19, symbol F); assay type: in vivo, southern crabgrass (Digitaria ciliaris); conditions: 320 g/ha
Method in brief: (§3)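 Soil-surface application: an emulsion agent diluted with water to the predetermined dose is sprayed uniformly over seeds lying under roughly 1.5 cm of sterilized diluvial soil. Boxes stay in a greenhouse at 25° C. to 30° C. Three weeks later, each species is graded on previously defined criteria.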

green foxtail [3] = test: Test Example 4: herbicidal effect by soil treatment (Table 19, symbol G); assay type: in vivo, green foxtail (Setaria viridis); conditions: 320 g/ha
Method in brief: as §3

barnyard grass [4] = test: Test Example 4: herbicidal effect by soil treatment (Table 19, symbol H); assay type: in vivo, barnyard grass (Echinochloa crus-galli); conditions: 320 g/ha
Method in brief: as §3

wild oat [5] = test: Test Example 4: herbicidal effect by soil treatment (Table 19, symbol I); assay type: in vivo, wild oat (Avena fatua); conditions: 320 g/ha
Method in brief: as §3

blackgrass [6] = test: Test Example 4: herbicidal effect by soil treatment (Table 19, symbol J); assay type: in vivo, blackgrass (Alopecurus myosuroides); conditions: 320 g/ha
Method in brief: as §3

Italian ryegrass [7] = test: Test Example 4: herbicidal effect by soil treatment (Table 19, symbol K); assay type: in vivo, Italian ryegrass (Lolium multiflorum); conditions: 320 g/ha
Method in brief: as §3

windgrass [8] = test: Test Example 4: herbicidal effect by soil treatment (Table 19, symbol L); assay type: in vivo, windgrass (Apera spica-venti); conditions: 320 g/ha
Method in brief: as §3

velvetleaf [9] = test: Test Example 4: herbicidal effect by soil treatment (Table 19, symbol M); assay type: in vivo, velvetleaf (Abutilon theophrasti); conditions: 320 g/ha
Method in brief: as §3

redroot pigweed [10] = test: Test Example 4: herbicidal effect by soil treatment (Table 19, symbol N); assay type: in vivo, redroot pigweed (Amaranthus retroflexus); conditions: 320 g/ha
Method in brief: as §3

lambsquarters [11] = test: Test Example 4: herbicidal effect by soil treatment (Table 19, symbol O); assay type: in vivo, lambsquarters (Chenopodium album); conditions: 320 g/ha
Method in brief: as §3

chickweed [12] = test: Test Example 4: herbicidal effect by soil treatment (Table 19, symbol P); assay type: in vivo, common chickweed (Stellaria media); conditions: 320 g/ha
Method in brief: as §3

persian speedwell [13] = test: Test Example 4: herbicidal effect by soil treatment (Table 19, symbol R); assay type: in vivo, Persian speedwell (Veronica persica); conditions: 320 g/ha
Method in brief: as §3

southern crabgrass [14] = test: Test Example 5: herbicidal effect by foliage application, plastic box (Table 20, symbol F); assay type: in vivo, southern crabgrass (Digitaria ciliaris); conditions: foliage application, 320 g/ha, evaluated three weeks after application
Method in brief: (§4)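 Sow seeds spot-wise in sterilized diluvial soil; cover with ~1.5 cm soil. Grow 14 days in greenhouse, 25° C. to 30° C. Spray foliage with emulsion diluted to predetermined amount. Rate effect after 3 weeks.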

green foxtail [15] = test: Test Example 5: herbicidal effect by foliage application, plastic box (Table 20, symbol G); assay type: in vivo, green foxtail (Setaria viridis); conditions: foliage application, 320 g/ha, evaluated three weeks after application
Method in brief: as §4

barnyard grass [16] = test: Test Example 5: herbicidal effect by foliage application, plastic box (Table 20, symbol H); assay type: in vivo, barnyard grass (Echinochloa crus-galli); conditions: foliage application, 320 g/ha, evaluated three weeks after application
Method in brief: as §4

wild oat [17] = test: Test Example 5: herbicidal effect by foliage application, plastic box (Table 20, symbol I); assay type: in vivo, wild oat (Avena fatua); conditions: foliage application, 320 g/ha, evaluated three weeks after application
Method in brief: as §4

blackgrass [18] = test: Test Example 5: herbicidal effect by foliage application, plastic box (Table 20, symbol J); assay type: in vivo, blackgrass (Alopecurus myosuroides); conditions: foliage application, 320 g/ha, evaluated three weeks after application
Method in brief: as §4

Italian ryegrass [19] = test: Test Example 5: herbicidal effect by foliage application, plastic box (Table 20, symbol K); assay type: in vivo, Italian ryegrass (Lolium multiflorum); conditions: foliage application, 320 g/ha, evaluated three weeks after application
Method in brief: as §4

windgrass [20] = test: Test Example 5: herbicidal effect by foliage application, plastic box (Table 20, symbol L); assay type: in vivo, windgrass (Apera spica-venti); conditions: foliage application, 320 g/ha, evaluated three weeks after application
Method in brief: as §4

velvetleaf [21] = test: Test Example 5: herbicidal effect by foliage application, plastic box (Table 20, symbol M); assay type: in vivo, velvetleaf (Abutilon theophrasti); conditions: foliage application, 320 g/ha, evaluated three weeks after application
Method in brief: as §4

redroot pigweed [22] = test: Test Example 5: herbicidal effect by foliage application, plastic box (Table 20, symbol N); assay type: in vivo, redroot pigweed (Amaranthus retroflexus); conditions: foliage application, 320 g/ha, evaluated three weeks after application
Method in brief: as §4

lambsquarters [23] = test: Test Example 5: herbicidal effect by foliage application, plastic box (Table 20, symbol O); assay type: in vivo, lambsquarters (Chenopodium album); conditions: foliage application, 320 g/ha, evaluated three weeks after application
Method in brief: as §4

chickweed [24] = test: Test Example 5: herbicidal effect by foliage application, plastic box (Table 20, symbol P); assay type: in vivo, common chickweed (Stellaria media); conditions: foliage application, 320 g/ha, evaluated three weeks after application
Method in brief: as §4

persian speedwell [25] = test: Test Example 5: herbicidal effect by foliage application, plastic box (Table 20, symbol R); assay type: in vivo, Persian speedwell (Veronica persica); conditions: foliage application, 320 g/ha, evaluated three weeks after application
Method in brief: as §4

## CSCCOc1ccc(-c2sc3ccc(F)cc3c2-c2c(O)c(C)nn(C)c2=O)cc1 [2-058]
Late watergrass
  Herbicidal effect on A: late watergrass (grade 0-5): 0 (Herbicidal rate of 5% or less (almost no effect))
Japanese bulrush
  Herbicidal effect on B: Japanese bulrush (grade 0-5): 2 (Herbicidal rate of 20% or more and less than 40%)
oval-leafed pondweed
  Herbicidal effect on C: oval-leafed pondweed (grade 0-5): 0 (Herbicidal rate of 5% or less (almost no effect))
Barnyard grass [1]
  herbicidal effect on H (barnyard grass), rating 0-5: 5 (Herbicidal rate of 90% or more (almost completely withered))
Chinese sprangletop
  herbicidal effect on D (Chinese sprangletop), rating 0-5: 5 (Herbicidal rate of 90% or more (almost completely withered))
Rice flat sedge
  herbicidal effect on E (rice flat sedge), rating 0-5: 5 (Herbicidal rate of 90% or more (almost completely withered))
Southern crabgrass [2]
  herbicidal effect rating, F: southern crabgrass: 5 (Herbicidal rate of 90% or more (almost completely withered))
Green foxtail [3]
  herbicidal effect rating, G: green foxtail: 4 (Herbicidal rate of 70% or more and less than 90%)
Barnyard grass [4]
  herbicidal effect rating, H: barnyard grass: 1 (Herbicidal rate of 5% or more and less than 20%)
Wild oat [5]
  herbicidal effect rating, I: wild oat: 0 (Herbicidal rate of 5% or less (almost no effect))
Blackgrass [6]
  herbicidal effect rating, J: blackgrass: 5 (Herbicidal rate of 90% or more (almost completely withered))
Italian ryegrass [7]
  herbicidal effect rating, K: Italian ryegrass: 4 (Herbicidal rate of 70% or more and less than 90%)
Windgrass [8]
  herbicidal effect rating, L: windgrass: 4 (Herbicidal rate of 70% or more and less than 90%)
Velvetleaf [9]
  herbicidal effect rating, M: velvetleaf: 3 (Herbicidal rate of 40% or more and less than 70%)
Redroot pigweed [10]
  herbicidal effect rating, N: redroot pigweed: 5 (Herbicidal rate of 90% or more (almost completely withered))
Lambsquarters [11]
  herbicidal effect rating, O: lambsquarters: 5 (Herbicidal rate of 90% or more (almost completely withered))
Chickweed [12]
  herbicidal effect rating, P: chickweed: 3 (Herbicidal rate of 40% or more and less than 70%)
Persian speedwell [13]
  herbicidal effect rating, R: persian speedwell: 4 (Herbicidal rate of 70% or more and less than 90%)
Southern crabgrass [14]
  herbicidal effect on F: southern crabgrass: 5 (Herbicidal rate of 90% or more (almost completely withered))
Green foxtail [15]
  herbicidal effect on G: green foxtail: 5 (Herbicidal rate of 90% or more (almost completely withered))
Barnyard grass [16]
  herbicidal effect on H: barnyard grass: 5 (Herbicidal rate of 90% or more (almost completely withered))
Wild oat [17]
  herbicidal effect on I: wild oat: 5 (Herbicidal rate of 90% or more (almost completely withered))
Blackgrass [18]
  herbicidal effect on J: blackgrass: 5 (Herbicidal rate of 90% or more (almost completely withered))
Italian ryegrass [19]
  herbicidal effect on K: Italian ryegrass: 5 (Herbicidal rate of 90% or more (almost completely withered))
Windgrass [20]
  herbicidal effect on L: windgrass: 5 (Herbicidal rate of 90% or more (almost completely withered))
Velvetleaf [21]
  herbicidal effect on M: velvetleaf: 5 (Herbicidal rate of 90% or more (almost completely withered))
Redroot pigweed [22]
  herbicidal effect on N: redroot pigweed: 5 (Herbicidal rate of 90% or more (almost completely withered))
Lambsquarters [23]
  herbicidal effect on O: lambsquarters: 5 (Herbicidal rate of 90% or more (almost completely withered))
Chickweed [24]
  herbicidal effect on P: chickweed: 5 (Herbicidal rate of 90% or more (almost completely withered))
Persian speedwell [25]
  herbicidal effect on R: persian speedwell: 5 (Herbicidal rate of 90% or more (almost completely withered))

— patent publication US20230085307A1, “PYRIDAZINONE COMPOUND AND HERBICIDE” (NISSAN CHEMICAL CORPORATION, priority 2019, published 2023)
